These results are taken from patent US10947252B2, “Inhibitors of KEAP1-Nrf2 protein-protein interaction” (Janssen Pharmaceutica NV, priority 2018, dated 2021).

Structures are written as SMILES.

In assay [1] the target is Kelch domain of human KEAP1 (321-624 aa) (Homo sapiens (Human), UniProt Q14145). Nature of the assay: KEAP1 KELCH ThermoFluor binding assay.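 Further: Ligand-induced melting temperature shift of E. coli-expressed KEAP1 Kelch protein, Kd estimated from concentration-response curves of ΔTm.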 The conditions noted are these: KEAP Kelch […], 1,8-ANS, pH 7.0, average of results obtained, read-out: Tf Kd. (In general: DSF heats the sample and reads unfolding from a dye or from intrinsic fluorescence.)
Sequence of Kelch domain of human KEAP1 (321-624 aa) (Q14145 321-624): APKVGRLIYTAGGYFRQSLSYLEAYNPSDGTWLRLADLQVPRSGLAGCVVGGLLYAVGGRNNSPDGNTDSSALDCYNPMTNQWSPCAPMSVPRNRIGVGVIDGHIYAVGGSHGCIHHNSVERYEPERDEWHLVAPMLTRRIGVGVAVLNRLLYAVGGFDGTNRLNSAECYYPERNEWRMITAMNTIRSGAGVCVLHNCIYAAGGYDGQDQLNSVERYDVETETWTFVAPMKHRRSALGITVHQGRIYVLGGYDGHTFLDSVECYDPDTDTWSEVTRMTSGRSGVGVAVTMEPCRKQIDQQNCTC
Assay [2] concerns Glo-Response ARE-luc2P HEK293 cell line. In words: ARE luciferase reporter cell-based assay.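 Further: luciferase signal tracks Nrf2 activation of the ARE once compounds disrupt KEAP1-Nrf2 binding, read with One-Glo reagent, DMSO serving as low control.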 The following applies: Homo sapiens, HEK293, 24 h, average of results obtained. (A reporter such as luciferase makes a cellular process visible.)

The term Kd denotes the concentration at which binding is half-saturated. In general, EC50 refers to the concentration giving half of the maximal effect. The low end stands for an effect from little substance, the high end for a need for much substance. In the case of `Cc1ncc([C@H](c2ccn3c(C(F)(F)F)nnc3c2C)C(C)(C)C(=O)O)cc1CN1C[C@@H]2CCCCN2c2ncc(C#N)cc2S1(=O)=O` (single isomer, unassigned) [Example 657, (*S)-3-(5-(((*S)-3-Cyano-5,5-dioxido-7,7a,8,9,10,11-hexahydro-6H-dipyrido[2,1-d:2′,3′-f][1,2,5]thiadiazepin-6-yl)methyl)-6-methylpyridin-3-yl)-2,2-dimethyl-3-(8-methyl-3-(trifluoromethyl)-[1,2,4]triazolo[4,3-a]pyridin-7-yl)propanoic Acid], in assay [1], the Kd is below 1 nM. In assay [2], this molecule gave an EC50 of 75 nM.
Consider `Cc1ccc([C@H](c2ccn3c(C(F)(F)F)nnc3c2C)C(C)(C)C(=O)O)cc1CN1CC2(CC2)Oc2nc(OCCN3CCCC3)c(C)cc2S1(=O)=O` (single isomer, unassigned) [Example 658, (*R)-2,2-dimethyl-3-(4-methyl-3-((8′-methyl-1′,1′-dioxido-7′-(2-(pyrrolidin-1-yl)ethoxy)spiro[cyclopropane-1,4′-pyrido[2,3-b][1,4,5]oxathiazepin]-2′(3′H)-yl)methyl)phenyl)-3-(8-methyl-3-(trifluoromethyl)-[1,2,4]triazolo[4,3-a]pyridin-7-yl)propanoic Acid], for which the Kd in assay [1] was 1210 nM. Further, the EC50 in assay [2] worked out at 6050 nM.
The matching figures for `Cc1ccc([C@H](c2ccc3c(nnn3C3CC3)c2C)C(C)(C)C(=O)O)cc1CN1CC2(CC2)Oc2nc(N[C@@H](C)CN3CCCCC3)c(C)cc2S1(=O)=O` (single isomer, unassigned) [Example 660, (*R)-3-(1-Cyclopropyl-4-methyl-1H-benzo[d][1,2,3]triazol-5-yl)-2,2-dimethyl-3-(4-methyl-3-((8′-methyl-1′,1′-dioxido-7′-(((S)-1-(piperidin-1-yl)propan-2-yl)amino)spiro[cyclopropane-1,4′-pyrido[2,3-b][1,4,5]oxathiazepin]-2′(3′H)-yl)methyl)phenyl)propanoic Acid]: 681 nM and 235 nM.
The matching figures for `Cc1ccc([C@H](c2ccn3c(C(F)(F)F)nnc3c2C)C(C)(C)C(=O)O)cc1CN1CC2(CC2)Oc2nc(OCCN3CCC(F)CC3)c(C)cc2S1(=O)=O` (single isomer, unassigned) [Example 662, (*S)-3-(3-((7′-(2-(4-fluoropiperidin-1-yl)ethoxy)-8′-methyl-1′,1′-dioxidospiro[cyclopropane-1,4′-pyrido[2,3-b][1,4,5]oxathiazepin]-2′(3′H)-yl)methyl)-4-methylphenyl)-2,2-dimethyl-3-(8-methyl-3-(trifluoromethyl)-[1,2,4]triazolo[4,3-a]pyridine-7-yl)propanoic Acid]: 568 nM and 308 nM.
On the same counts, the results for `Cc1ccc([C@@H](c2ccn3c(C4CC4)nnc3c2C)C(C)(C)C(=O)O)cc1CN1CC2(CC2)Oc2nc(OCCN3CCCC3)c(C)cc2S1(=O)=O` (single isomer, unassigned) [Example 663, (*S)-3-(3-Cyclopropyl-8-methyl-[1,2,4]triazolo[4,3-a]pyridin-7-yl)-2,2-dimethyl-3-(4-methyl-3-((8′-methyl-1′,1′-dioxido-7′-(2-(pyrrolidin-1-yl)ethoxy)spiro[cyclopropane-1,4′-pyrido[2,3-b][1,4,5]oxathiazepin]-2′(3′H)-yl)methyl)phenyl)propanoic Acid] are below 1 nM and 57.5 nM.
Turning to `Cc1ccc([C@H](c2ccn3c(C4CC4)nnc3c2C)C(C)(C)C(=O)O)cc1CN1CC2(CC2)Oc2nc(OCCN3CCCC3)c(C)cc2S1(=O)=O` (single isomer, unassigned) [Example 664, (*R)-3-(3-Cyclopropyl-8-methyl-[1,2,4]triazolo[4,3-a]pyridin-7-yl)-2,2-dimethyl-3-(4-methyl-3-((8′-methyl-1′,1′-dioxido-7′-(2-(pyrrolidin-1-yl)ethoxy)spiro[cyclopropane-1,4′-pyrido[2,3-b][1,4,5]oxathiazepin]-2′(3′H)-yl)methyl)phenyl)propanoic Acid], the Kd in assay [1] worked out at 1840 nM. In addition, in assay [2], the EC50 was above 20000 nM.
On the same counts, the results for `CCn1nnc2c(C)c([C@@H](c3cc(CN4CC5(CC5)Oc5ncc(C)cc5S4(=O)=O)c(C)cn3)C(C)(C)C(=O)O)ccc21` (single isomer, unassigned) [Example 665, (*R)-3-(1-Ethyl-4-methyl-1H-benzo[d][1,2,3]triazol-5-yl)-2,2-dimethyl-3-(5-methyl-4-((8′-methyl-1′,1′-dioxidospiro[cyclopropane-1,4′-pyrido[2,3-b][1,4,5]oxathiazepin]-2′(3′H)-yl)methyl)pyridin-2-yl)propanoic Acid] are 180 nM and 497 nM.
As for `Cc1ccc(C(CC(=O)O)c2cc(OC(F)F)c3c(c2)nnn3C)cc1CN1C[C@H]2CCCCN2c2ncccc2S1(=O)=O` (stereo in doubt) [Example 1, 3-(7-(Difluoromethoxy)-1-methyl-1H-benzo[d][1,2,3]triazol-5-yl)-3-(3-(((*R)-5,5-dioxido-7,7a,8,9,10,11-hexahydro-6H-dipyrido[2,1-d:2′,3′-f][1,2,5]thiadiazepin-6-yl)methyl)-4-methylphenyl)propanoic acid], the dissociation constant (Kd) in assay [1] turned out to be 0.042 nM. For the same molecule, the EC50 in assay [2] came out at 35 nM.
Turning to `Cc1ccc(C(CC(=O)O)c2ccc3c(nnn3C3CC3)c2C)cc1CN1C[C@@H]2COCCN2c2ncccc2S1(=O)=O` (stereo in doubt) [Example 23, 3-(1-Cyclopropyl-4-methyl-1H-benzo[d][1,2,3]triazol-5-yl)-3-(3-(((*R)-5,5-dioxido-7a,8,10,11-tetrahydro-[1,4]oxazino[3,4-d]pyrido[2,3-f][1,2,5]thiadiazepin-6(7H)-yl)methyl)-4-methylphenyl)propanoic Acid], in assay [1], the Kd turned out to be 0.278 nM. Further, a half-maximal effect in assay [2] (EC50) was put at 8.3 nM.
Consider `Cc1ccc([C@H](CC(=O)O)c2ccc3c(nnn3CC3CC3)c2C(F)F)cc1CN1CC2CCCN2c2ncccc2S1(=O)=O` (stereo in doubt) [Example 66, (*S)-3-(1-(Cyclopropylmethyl)-4-(difluoromethyl-1H-benzo[d][1,2,3]triazol-5-yl)-3-(3-((R-5,5-dioxido-7a,8,9,10-tetrahydropyridi[2,3-f]pyrrolo[2,1-d][1,2,5]thiadiazepin-6(7H)-yl)methyl)-4-methylphenyl)propanoic Acid], for which, in assay [1], the Kd came to 1 nM. The molecule further gave an EC50 in assay [2] of 260 nM.
The matching figures for `Cc1ccc([C@@H](CC(=O)O)c2ccc3c(nnn3CC3CC3)c2C(F)F)cc1CN1CC2CCCN2c2ncccc2S1(=O)=O` (stereo in doubt) [Example 68, (*R)-3-(1-(Cyclopropylmethyl)-4-(difluoromethyl-1H-benzo[d][1,2,3]triazol-5-yl)-3-(3-((R-5,5-dioxido-7a,8,9,10-tetrahydropyridi[2,3-f]pyrrolo[2,1-d][1,2,5]thiadiazepin-6(7H)-yl)methyl)-4-methylphenyl)propanoic Acid]: 1.4 nM and 250 nM.
The matching figures for `Cc1ccc(C(CC(=O)O)c2ccc3c(nnn3CC3CC3)c2C)cc1CN1C[C@@]2(C)CCCN2c2ncccc2S1(=O)=O` (stereo in doubt) [Example 80, 3-(1-(Cyclopropylmethyl)-4-methyl-1H-benzo[d][1,2,3]triazol-5-yl)-3-(4-methyl-3-(((*R)-7a-methyl-5,5-dioxido-7a,8,9,10-tetrahydropyrido[2,3-f]pyrrolo[2,1-d][1,2,5]thiadiazepin-6(7H)-yl)methyl)phenyl)propanoic Acid]: 8 nM and 306 nM.
On the same counts, the results for `Cc1ccc([C@H](c2ccn3c(C(F)(F)F)nnc3c2C)C(C)(C)C(=O)O)cc1CN1CC2(CCOCC2)Oc2nc(NC3CC(O)C3)c(C)cc2S1(=O)=O` (stereo in doubt) [Example 125, (*R)-3-(3-((7′-(((1s,3S)-3-Hydroxycyclobutyl)amino)-8′-methyl-1′,1′-dioxido-2,3,5,6-tetrahydrospiro[pyran-4,4′-pyrido[2,3-b][1,4,5]oxathiazepin]-2′(3′H)-yl)methyl)-4-methylphenyl)-2,2-dimethyl-3-(8-methyl-3-(trifluoromethyl)-[1,2,4]triazolo[4,3-a]pyridine-7-yl)propanoic Acid] are below 1 nM and 140 nM.
Regarding `Cc1ccc(C(CC(=O)O)c2ccn3c(C(F)(F)F)nnc3c2C)cc1CN1C[C@H]2CCCCN2c2ncccc2S1(=O)=O` (stereo in doubt) [Example 271, 3-(3-(((*R)-5,5-Dioxido-7,7a,8,9,10,11-hexahydro-6H-dipyrido[2,1-d:2′,3′-f][1,2,5]thiadiazepin-6-yl)methyl)-4-methylphenyl)-3-(8-methyl-3-(trifluoromethyl)-[1,2,4]triazolo[4,3-a]pyridin-7-yl)propanoic Acid], in assay [1], the Kd was below 1 nM. In assay [2], the EC50 was 22.9 nM.
The matching figures for `Cc1ccc(C(CC(=O)O)c2ccn3c(C(F)(F)F)nnc3c2C)cc1CN1C[C@@H]2CCCCN2c2ncccc2S1(=O)=O` (stereo in doubt) [Example 289, 3-(3-(((*S)-5,5-Dioxido-7,7a,8,9,10,11-hexahydro-6H-dipyrido[2,1-d:2′,3′-f][1,2,5]thiadiazepin-6-yl)methyl)-4-methylphenyl)-3-(8-methyl-3-(trifluoromethyl)-[1,2,4]triazolo[4,3-a]pyridin-7-yl)propanoic Acid]: below 1 nM and 19.3 nM.
For the molecule `CCn1nnc2c(C)c(C(CC(=O)O)c3ccc(C)c(CN4C[C@@H]5CCCCN5c5ncccc5S4(=O)=O)n3)ccc21` (stereo in doubt) [Example 301, 3-(6-(((*S)-5,5-Dioxido-7,7a,8,9,10,11-hexahydro-6H-dipyrido[2,1-d:2′,3′-][1,2,5]thiadiazepin-6-yl)methyl)-5-methylpyridin-2-yl)-3-(1-ethyl-4-methyl-1H-benzo[d][1,2,3]triazol-5-yl)propanoic Acid], the Kd in assay [1] was below 1 nM. This molecule registered an EC50 in assay [2] of 4.7 nM.
